{
  "source": "patent US9228175B2",
  "about": "“Genes encoding a novel type of lysophophatidylcholine acyltransferases and their use to increase triacylglycerol production and/or modify fatty acid composition” (National Research Counsel of Canada, priority 2006, dated 2016)",
  "assay_type_in_all_cases": "biochemical",
  "key": {"[1]": {"target": "T1, AtLPCAT2 (Arabidopsis thaliana, UniProt Q9CAN8)", "T1 construct": "made in house; host or cells: S. cerevisiae YOR175c deletion strain BY02431 (lca1Δ), pYES2.1 TOPO, galactose induction; microsomal protein", "T1 sequence (Q9CAN8 1-465)": "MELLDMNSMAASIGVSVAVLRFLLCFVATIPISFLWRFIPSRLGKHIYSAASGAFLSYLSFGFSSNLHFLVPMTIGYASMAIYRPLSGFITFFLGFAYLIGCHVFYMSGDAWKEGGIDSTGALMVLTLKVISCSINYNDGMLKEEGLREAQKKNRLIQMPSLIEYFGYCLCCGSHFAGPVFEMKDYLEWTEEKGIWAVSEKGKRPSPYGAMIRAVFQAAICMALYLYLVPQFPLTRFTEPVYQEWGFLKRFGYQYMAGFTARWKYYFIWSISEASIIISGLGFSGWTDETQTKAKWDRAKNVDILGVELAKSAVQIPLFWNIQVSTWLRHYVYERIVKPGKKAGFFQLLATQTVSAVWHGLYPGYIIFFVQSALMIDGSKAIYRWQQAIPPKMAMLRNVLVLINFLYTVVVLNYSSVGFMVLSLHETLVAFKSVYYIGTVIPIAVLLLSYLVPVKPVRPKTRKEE", "assay": "Zn^2+ sensitivity of AtLPCAT2, in vitro LPCAT assay", "conditions": "increasing ZnCl2; 25 μM palmitoyl-LPC, 25 μM stearyl-CoA, 20 μg microsomal protein, pH 7.4", "protocol": "(§1) FIG. 19 is a graph depicting the inhibitory effect of Zn^2+ on AtLPCATs activity. The lca1Δ over-expressing AtLPCATs was used to asses Zn^2+ effect. The reactions contained 25 μM palmitoyl-LPC (1.35 nCi/nmol), 20 μg microsomal proteins, 0.1 M HEPES (pH 7.4), 25 μM stearyl-CoA and indicated concentration of ZnCl2.\n(§2) AtLPCAT substrate specificity was determined by counting incorporation of 14C-labeled lysophosphatidylcholine or 14C-labeled palmitoyl-CoA into phosphatidylcholine. All assays were performed at least twice. […] reaction mixture contained […] microsomal protein, […] acyl-CoA and […], pH7.4. 14C-lysophosphatidylcholine (1.4 nCi/nmol) or 14C-palmityl-CoA (5.5 nCi/nmol) was used to assess fatty-CoA or lyso-lipid substrate specificity. Reaction was allowed for ten minutes at 30° C. All radiolabel chemicals for these assays were purchased from ARC, Inc."}, "[2]": {"target": "T2, AtLPCAT1 (Arabidopsis thaliana, UniProt F4IDU4)", "T2 construct": "made in house; host or cells: S. cerevisiae YOR175c deletion strain BY02431 (lca1Δ), pYES2.1 TOPO, galactose induction; microsomal protein", "T2 sequence (F4IDU4 1-462)": "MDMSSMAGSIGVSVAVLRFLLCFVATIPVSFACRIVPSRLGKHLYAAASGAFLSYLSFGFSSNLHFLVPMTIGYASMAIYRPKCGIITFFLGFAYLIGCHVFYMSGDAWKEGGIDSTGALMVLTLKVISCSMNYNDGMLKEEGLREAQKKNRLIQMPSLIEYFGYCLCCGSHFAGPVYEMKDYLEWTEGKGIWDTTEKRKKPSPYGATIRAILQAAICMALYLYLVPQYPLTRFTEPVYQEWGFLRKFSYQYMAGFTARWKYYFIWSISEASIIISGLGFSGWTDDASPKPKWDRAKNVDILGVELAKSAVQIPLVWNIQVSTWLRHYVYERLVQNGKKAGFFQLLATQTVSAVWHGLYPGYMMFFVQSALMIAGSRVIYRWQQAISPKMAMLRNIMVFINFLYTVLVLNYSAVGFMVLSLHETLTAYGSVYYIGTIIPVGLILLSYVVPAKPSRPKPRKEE", "assay": "Zn^2+ sensitivity of AtLPCAT1, in vitro LPCAT assay", "conditions": "increasing ZnCl2; 25 μM palmitoyl-LPC, 25 μM stearyl-CoA, 20 μg microsomal protein, pH 7.4", "protocol": "as §1, §2"}, "[3]": {"target": "T3, LCA1 (Saccharomyces cerevisiae, UniProt Q08548)", "T3 construct": "Saccharomyces cerevisiae YOR175c ORF was PCR-amplified; made in house; host or cells: S. cerevisiae YOR175c deletion strain Y02431 (lca1Δ), pYES2.1, galactose induction; microsomal fraction", "T3 sequence (Q08548 1-619)": "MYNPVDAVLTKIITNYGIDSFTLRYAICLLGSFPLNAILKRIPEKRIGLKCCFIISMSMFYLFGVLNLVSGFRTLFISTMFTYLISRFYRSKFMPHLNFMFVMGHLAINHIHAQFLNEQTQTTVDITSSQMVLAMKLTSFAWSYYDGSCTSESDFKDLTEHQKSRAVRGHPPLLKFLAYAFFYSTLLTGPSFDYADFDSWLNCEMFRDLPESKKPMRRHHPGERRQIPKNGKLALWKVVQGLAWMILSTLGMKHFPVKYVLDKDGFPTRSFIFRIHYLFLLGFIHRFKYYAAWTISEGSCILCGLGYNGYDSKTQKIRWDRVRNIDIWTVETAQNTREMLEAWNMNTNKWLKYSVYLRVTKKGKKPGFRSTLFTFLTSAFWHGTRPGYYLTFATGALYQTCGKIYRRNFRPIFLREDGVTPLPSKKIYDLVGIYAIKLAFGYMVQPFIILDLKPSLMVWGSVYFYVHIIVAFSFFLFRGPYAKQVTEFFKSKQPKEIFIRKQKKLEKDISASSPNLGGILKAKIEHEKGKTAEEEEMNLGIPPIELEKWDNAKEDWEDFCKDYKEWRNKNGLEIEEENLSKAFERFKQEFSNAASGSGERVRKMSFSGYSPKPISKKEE", "assay": "Zn^2+ / Mg^2+ effect on LPCAT activity of LCA1 (in vitro assay, microsomes of lca1Δ over-expressing LCA1)", "conditions": "for LPCAT activity (% control): 5.6 μM palmitoyl-LPC, 11.25 μM stearyl-CoA, 1.5 μg microsomal protein, pH 7.4, two minutes, mean±S.D.", "protocol": "Microsomal preparation: Yeast strains were first grown in 15 ml of SC-Leu-His-Ura medium containing 2% glucose. Protein expression induction was carried out as described in Invitrogen manufacturer manual for yeast expression vector pYES2.1. After 24 hours of growth in SC+2% galactose+1% raffinose induction conditions, the cells were washed, first with distilled water and then with wall-breaking buffer (50 mM Tris-HCl, 1 mM EDTA, 0.6 M sorbitol, pH 7.4, 1 mM DTT). After centrifugation at 4,000 rpm (Eppendorf Centrifuge 5145C), the cells were resuspended in 1 ml wall-breaking buffer with 10 μl yeast protease cocktail (Sigma), and shaken vigorously in the presence of acid-washed glass beads (diameter 0.5 mm). The resultant homogenate was centrifuged at 12,000 rpm for ten minutes at 4° C. The decanted supernatant was further centrifuged at 100,000×g for 90-120 minutes at 4° C. The supernatant was discarded, and the pellet was suspended in homogenization buffer containing 20% glycerol and frozen at −80° C. until use. Protein concentration was measured using Bio-Rad Protein Assay Kit for final enzyme activity calculation.\nIn Vitro Assay of LPCAT activity: LPCAT substrate specificity was determined by measuring incorporation of [^14C] lysophosphatidylcholine or [^14C] palmitoyl-CoA into phosphatidylcholine. All assays were performed at least twice. For lysophospholipid substrate specificity assessment, 400 μl HEPES buffer contained 3 μg microsomal protein, 50 μM of lysophospholipid substrates and 112.5 μM [^14C] palmitoyl-CoA (5.5 nCi/nmol). For acyl-CoA substrate selectivity analysis, 400 μl HEPES reaction buffer (pH7.4, 0.1 M) contained 3 μg microsomal protein, 50 μM acyl-CoA and 112.5 μM [^14C] […] (1.35 nCi/nmol). Reaction was allowed for 2 minutes at 30° C. with 100 rpm shaking. The reaction products were extracted with chloroform/methanol (2/1, v/v) and separated with Merck silica G60 TLC plates. Spots corresponding to different phospholipid species products were scraped off and ^14C incorporation were scintillation counted. Different concentrations of ZnCl2 were added in to reactions for Zn^2+ inhibitory effect assay.\nResults are expressed as means±S.D. The lca1Δ over-expressing LCA1 was used to assess Zn^2+ effect. The reactions contained 5.6 μM palmitoyl-LPC (1.35 nCi/nmol), 1.5 μg microsomal proteins, 0.1 M HEPES (pH 7.4), 11.25 μM stearyl-CoA and indicated concentration of ZnCl2. The reaction was stopped after two minutes by adding 2 ml of chloroform/methanol solution (2:1)."}},
  "data": [
    {"smiles": "[Cl-].[Cl-].[Zn+2]", "note": "[ZnCl2]", "values": [
      {"measurement": "AtLPCAT2 activity with Zn^2+ added", "setting": "[1]", "result": "decreased with increasing concentration"},
      {"measurement": "AtLPCAT1 activity with Zn^2+ added", "setting": "[2]", "result": "decreased with increasing concentration"},
      {"measurement": "Concentration at which the maximum increase of LPCAT activity was observed", "setting": "[3]", "result": 25, "unit": "µM"},
      {"measurement": "LPCAT activity (% control)", "setting": "[3]; 5 μM ZnCl2", "result": "98 ± 5.9", "unit": "% control"},
      {"measurement": "LPCAT activity (% control)", "setting": "[3]; 10 μM ZnCl2", "result": "136.8 ± 3.9", "unit": "% control"},
      {"measurement": "LPCAT activity (% control)", "setting": "[3]; 25 μM ZnCl2", "result": "149.7 ± 12.0", "unit": "% control"},
      {"measurement": "LPCAT activity (% control)", "setting": "[3]; 0.1 mM ZnCl2", "result": "35 ± 22.4", "unit": "% control"},
      {"measurement": "LPCAT activity (% control)", "setting": "[3]; 20 mM ZnCl2", "result": "6 ± 2.0", "unit": "% control"},
      {"measurement": "Effect on LPCAT activity of LCA1", "setting": "[3]; lower (10-25 μM) concentration", "result": "enhanced LPCAT activity"},
      {"measurement": "Effect on LPCAT activity of LCA1", "setting": "[3]; range between 0.1 mM to 20 mM", "result": "significant reduction"}
    ]}
  ]
}
